Common to all, as to assay: cells
What all share (parameters): Cell growth inhibition, sulforhodamine B total protein staining

One experiment concerns HCT15. The settings on record: Homo sapiens, HCT-15; 72 h growth; read-out: Cell growth inhibition IC50/µM. The essentials:
(§1)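 72 h exposure of a 94-cell-line panel to Glupin; growth measured by sulforhodamine B total-protein staining after TCA fixation (10% adherent, 50% suspension/semi-adherent, 1 h at 4 °C). IC50 derived from growth inhibition.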

The next experiment concerns RD. To be noted: Homo sapiens, RD; 72 h growth; read-out: Cell growth inhibition IC50/µM. A digest of the protocol:
as §1

A further experiment concerns CALU6. The settings on record: Homo sapiens, Calu-6; 72 h growth; read-out: Cell growth inhibition IC50/µM. The essentials: as §1
The next experiment has as its system MDAMB435. The settings on record: Homo sapiens, MDA-MB-435; 72 h growth; read-out: Cell growth inhibition IC50/µM. A digest of the protocol:
as §1

For the next experiment, the system named is L363. To be noted: Homo sapiens, L-363; 72 h growth; read-out: Cell growth inhibition IC50/µM. A digest of the protocol:
as §1

The subject of a further experiment is CASKI. To be noted: Homo sapiens, Ca-Ski; 72 h growth; read-out: Cell growth inhibition IC50/µM. The essentials:
as §1

A further experiment has as its system SKBR3. To be noted: Homo sapiens, SK-BR-3; 72 h growth; read-out: Cell growth inhibition IC50/µM. A digest of the protocol:
as §1

A further experiment relates to IMR90. To be noted: Homo sapiens, IMR-90; 72 h growth; read-out: Cell growth inhibition IC50/µM. The essentials: as §1
For the next experiment, the system named is BXPC3. To be noted: Homo sapiens, BXPC-3; 72 h growth; read-out: Cell growth inhibition IC50/µM. A digest of the protocol:
as §1

The next experiment has as its system T24. To be noted: Homo sapiens, T-24; 72 h growth; read-out: Cell growth inhibition IC50/µM. A digest of the protocol: as §1
The next experiment deals with MHHES1. To be noted: Homo sapiens, MHH-ES-1; 72 h growth; read-out: Cell growth inhibition IC50/µM. The essentials:
as §1

The next experiment relates to PC3. To be noted: Homo sapiens, PC-3; 72 h growth; read-out: Cell growth inhibition IC50/µM. The essentials:
as §1

The test system of the next experiment is NCIH358M. The settings on record: NCI-H358M; 72 h growth; read-out: Cell growth inhibition IC50/µM. A digest of the protocol:
as §1

A further experiment has as its system GRANTA519. To be noted: Homo sapiens, Granta-519; 72 h growth; read-out: Cell growth inhibition IC50/µM. The essentials: as §1
For the next experiment, the system named is JIMT1. To be noted: Homo sapiens, JIMT-1; 72 h growth; read-out: Cell growth inhibition IC50/µM. A digest of the protocol:
as §1

Another experiment has as its system LOVO. The settings on record: Homo sapiens, LoVo; 72 h growth; read-out: Cell growth inhibition IC50/µM. The essentials:
as §1

In a further experiment the test system is A431. The settings on record: Homo sapiens, A-431; 72 h growth; read-out: Cell growth inhibition IC50/µM. The essentials:
as §1

Another experiment relates to SUDHL6. To be noted: Homo sapiens, SU-DHL-6; 72 h growth; read-out: Cell growth inhibition IC50/µM. The essentials:
as §1

The test system of a further experiment is HEK293. The settings on record: Homo sapiens, HEK293; 72 h growth; read-out: Cell growth inhibition IC50/µM. The essentials: as §1
Another experiment has as its system A375. The settings on record: Homo sapiens, A-375; 72 h growth; read-out: Cell growth inhibition IC50/µM. A digest of the protocol:
as §1

For another experiment, the system named is SKHEP1. To be noted: Homo sapiens, SK-HEP1; 72 h growth; read-out: Cell growth inhibition IC50/µM. A digest of the protocol: as §1
For a further experiment, the system named is RDES. To be noted: RD-ES; 72 h growth; read-out: Cell growth inhibition IC50/µM. A digest of the protocol: as §1
A further experiment has as its system C33A. To be noted: Homo sapiens, C-33-A; 72 h growth; read-out: Cell growth inhibition IC50/µM. A digest of the protocol:
as §1

The values below come from PMC6900016, “Synthesis of Indomorphan Pseudo‐Natural Product Inhibitors of Glucose Transporters GLUT‐1 and ‐3” (Angewandte Chemie (International Ed. in English), 2019).

`CCOC(=O)Cn1c2c(c3ccccc31)C[C@@H]1C[C@H]2C(OC)CN1C(=O)c1cccnc1SC` (single isomer, unassigned; (+)) [(+)-5a, Glupin]: the IC50 with HCT15 came to 0.407 µM; in the experiment on RD, 0.842 µM; with CALU6, 0.538 µM; in the experiment with MDAMB435, 0.513 µM; in the experiment on L363, 2.87 µM; with CASKI, 0.433 µM. For the same molecule, the IC50 in the experiment with SKBR3 is greater than 30 µM; in the experiment with IMR90, greater than 30 µM; in the experiment on BXPC3 it was 0.591 µM; in the experiment with T24 it was 0.243 µM; in the experiment on MHHES1, 1.49 µM; in the experiment with PC3, 0.827 µM. Also, the IC50 in the experiment with NCIH358M is greater than 30 µM; with GRANTA519, greater than 30 µM; in the experiment with JIMT1, 0.113 µM; in the experiment on LOVO, 5.41 µM; in the experiment with A431, 0.23 µM; with SUDHL6, 0.092 µM. Besides, the IC50 in the experiment on HEK293 is 0.463 µM; with A375 it was 0.659 µM; with SKHEP1 it was 0.569 µM; in the experiment with RDES, 3.71 µM; in the experiment on C33A, 1.5 µM.
